Measured values published in US10570131B2, “Heterocyclic compounds and their use in preventing or treating bacterial infections” (MUTABILIS, priority 2015, dated 2020).
Structures can show the parent of a compound that is named as a salt.

Tests used:
[1] = biological target: T1, AmpC (PAE) (Pseudomonas aeruginosa, UniProt P24735); experiment: biochemical; set-up: species or system P. aeruginosa
T1 construct: made in house; host or cells: E. coli expression vector
Description: (§1) Method 1: β-lactamase Inhibitory Activity, Determination of IC50 (Table 1)
(§2) Enzyme activity was monitored by spectrophotometric measurement of nitrocefin (NCF—TOKU-E, N005) hydrolysis at 485 nm, at room temperature and in assay buffer A: 100 mM Phosphate pH7, 2% glycerol and 0.1 mg/mL Bovine serum albumin (Sigma, B4287). Enzymes were cloned in E. coli expression vector, expressed and purified in house using classical procedures. To a transparent polystyrene plate (Corning, 3628) were added in each well 5 μL DMSO or inhibitor dilutions in DMSO and 80 μL enzyme in buffer A. Plates were immediately read at 485 nm in a microplate spectrophotometer (BioTek, PowerWave HT) to enable background subtraction. After 30 min of pre-incubation at room temperature, 15 μL of NCF (200 μM final) were finally added in each well. Final enzyme concentrations were 0.1 nM (TEM-1), 0.075 nM (SHV-1), 0.4 nM (CTX-M-15), 1 nM (KPC-2), 0.2 nM (P99 AmpC), 0.2 nM (CMY-37), 0.4 nM (AmpC P. aeruginosa), 0.2 nM (OXA-1), 1.2 nM (OXA-11), 0.4 nM (OXA-15) and 0.3 nM (OXA-48). After 20 min incubation at room temperature, plates were once again read at 485 nm. Enzyme activity was obtained by subtracting the final signal by the background, and was converted to enzyme inhibition using non inhibited wells. IC50 curves were fitted to a classical Langmuir equilibrium model with Hill slope using XLFIT (IDBS).

[2] = biological target: T2, AmpC (P99) (Enterobacter cloacae, UniProt P05364); experiment: biochemical
T2 construct: made in house; host or cells: E. coli expression vector
Description: as §1, §2

[3] = biological target: T3, OXA-15 (Pseudomonas aeruginosa, UniProt Q51574); experiment: biochemical
T3 construct: made in house; host or cells: E. coli expression vector
Description: as §1, §2

[4] = system: E. coli 131119; experiment: microbe, parasite or virus in culture; assay type: cell-based; settings: Escherichia coli, 131119, read-out: MIC compounds of the invention alone
Description: (§3) Compounds of the present invention were assessed against genotyped bacterial strains alone or in combination with the β-lactam ceftazidime (CAZ). […] Briefly, compounds alone according to the invention were prepared in DMSO and spotted (2 μL each) on sterile polystyrene plates (Corning, 3788). […] Log phase bacterial suspensions were adjusted to a final density of 5×10^5 cfu/mL in cation-adjusted Mueller-Hinton broth (Becton-Dickinson) and added to each well (98 μL). Microplates were incubated for 16-20 h at 35° C. in ambient air. The MIC of the compounds was defined as the lowest concentration of said compounds that prevented bacterial growth as read by visual inspection.

[5] = system: K. pneumoniae 6299; experiment: microbe, parasite or virus in culture; assay type: cell-based; settings: Klebsiella pneumoniae, 6299, read-out: MIC compounds of the invention alone
Description: as §3

[6] = system: P. aeruginosa CIP105250; experiment: microbe, parasite or virus in culture; assay type: cell-based; settings: Pseudomonas aeruginosa, CIP105250, read-out: MIC compounds of the invention alone
Description: as §3

[7] = system: E. cloacae 260508; experiment: MIC of ceftazidime alone and in combination with compounds (synergy), broth microdilution; assay type: cell-based; settings: MIC of ceftazidime with compound fixed at 4 μg/mL; strain 260508 (TEM-1, CTX-M-15)
[8] = system: K. pneumoniae 160143; experiment: as above; assay type: cell-based; settings: MIC of ceftazidime with compound fixed at 4 μg/mL; strain 160143 (TEM-1, SHV-1, CTX-M-15, KPC-2, OXA-1)
[9] = system: K. pneumoniae UFR68; assay type: cell-based; settings: MIC of ceftazidime with compound fixed at 4 μg/mL; strain UFR68 (TEM-1, SHV-11, CTX-M-15, KPC-3)
[10] = system: E. coli 131119; experiment: MIC of ceftazidime alone and in combination with compounds (synergy), broth microdilution; assay type: cell-based; settings: MIC of ceftazidime with compound fixed at 4 μg/mL; strain 131119 (TEM-1, OXA-48)
Description: as §3

[11] = system: E. coli RGN238; experiment: as above; assay type: cell-based; settings: MIC of ceftazidime with compound fixed at 4 μg/mL; strain RGN238 (OXA-1)
Description: as §3

[12] = system: E. coli UFR74; experiment: as above; assay type: cell-based; settings: MIC of ceftazidime with compound fixed at 4 μg/mL; strain UFR74 (SHV-1, DHA-1)
Description: as §3

[13] = system: K. pneumoniae 6299; experiment: as above; assay type: cell-based; settings: MIC of ceftazidime with compound fixed at 4 μg/mL; strain 6299 (TEM-1, SHV-11, OXA-163)
Description: as §3

[14] = system: K. pneumoniae BAA-1898; experiment: as above; assay type: cell-based; settings: MIC of ceftazidime with compound fixed at 4 μg/mL; strain BAA-1898 (TEM-1, SHV-11, SHV-12, KPC-2)
Description: as §3

[15] = system: K. pneumoniae UFR77; experiment: as above; assay type: cell-based; settings: MIC of ceftazidime with compound fixed at 4 μg/mL; strain UFR77 (CMY-2)
Description: as §3

[16] = system: P. aeruginosa CIP105250; experiment: as above; assay type: cell-based; settings: MIC of ceftazidime with compound fixed at 4 μg/mL; strain CIP105250 (OXA-15)
Description: as §3

[17] = system: P. aeruginosa CIP107051; experiment: as above; assay type: cell-based; settings: MIC of ceftazidime with compound fixed at 4 μg/mL; strain CIP107051 (TEM-24)
Description: as §3

[18] = system: K. oxytoca UFR21; experiment: as above; assay type: cell-based; settings: MIC of ceftazidime with compound fixed at 4 μg/mL; strain UFR21 (TEM-1, CTX-M-15, OXA-48)
[19] = system: K. pneumoniae UFR24; assay type: cell-based; settings: MIC of ceftazidime with compound fixed at 4 μg/mL; strain UFR24 (TEM-1, SHV-2, SHV-11, OXA-1, OXA-48, OXA-47)
[20] = system: K. pneumoniae 200047; experiment: MIC of ceftazidime alone and in combination with compounds (synergy), broth microdilution; assay type: cell-based; settings: MIC of ceftazidime with compound fixed at 4 μg/mL; strain 200047 (TEM-1, SHV-32, CTX-M-15, OXA-1)
[21] = system: E. coli 190317; experiment: as above; assay type: cell-based; settings: MIC of ceftazidime with compound fixed at 4 μg/mL; strain 190317 (TEM-1, SHV-12, CTX-M-15, OXA-1)

T3 sequence (Q51574 22-275): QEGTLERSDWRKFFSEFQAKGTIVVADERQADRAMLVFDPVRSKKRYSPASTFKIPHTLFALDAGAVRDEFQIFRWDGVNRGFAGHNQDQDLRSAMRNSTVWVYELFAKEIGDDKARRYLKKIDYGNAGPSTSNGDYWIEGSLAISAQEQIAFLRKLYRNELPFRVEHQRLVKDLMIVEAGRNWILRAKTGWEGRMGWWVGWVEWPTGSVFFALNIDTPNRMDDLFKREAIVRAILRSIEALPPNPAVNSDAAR
T1 sequence (P24735 27-397): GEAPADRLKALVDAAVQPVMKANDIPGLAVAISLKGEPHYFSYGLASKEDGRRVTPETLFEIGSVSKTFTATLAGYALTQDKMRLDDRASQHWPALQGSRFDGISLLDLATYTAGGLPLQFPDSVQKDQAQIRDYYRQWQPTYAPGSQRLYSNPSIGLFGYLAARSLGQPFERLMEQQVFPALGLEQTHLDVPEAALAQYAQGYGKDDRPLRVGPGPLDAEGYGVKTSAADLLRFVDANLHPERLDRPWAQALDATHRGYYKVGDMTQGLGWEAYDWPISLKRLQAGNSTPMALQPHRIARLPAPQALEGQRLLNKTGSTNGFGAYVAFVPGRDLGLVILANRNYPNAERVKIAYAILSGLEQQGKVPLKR
T2 sequence (P05364 21-381): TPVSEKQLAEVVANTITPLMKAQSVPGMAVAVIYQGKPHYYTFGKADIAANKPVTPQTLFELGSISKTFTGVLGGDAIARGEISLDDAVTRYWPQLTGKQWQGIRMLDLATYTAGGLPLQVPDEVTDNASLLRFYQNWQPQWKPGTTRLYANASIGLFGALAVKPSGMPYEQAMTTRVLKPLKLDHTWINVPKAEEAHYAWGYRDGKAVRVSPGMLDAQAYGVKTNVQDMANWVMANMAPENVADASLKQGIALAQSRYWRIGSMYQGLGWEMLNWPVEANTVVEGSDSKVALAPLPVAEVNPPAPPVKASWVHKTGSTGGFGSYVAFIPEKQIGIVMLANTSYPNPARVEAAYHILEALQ

SMILES | IC50 [1] [nM] | IC50 [2] [nM] | IC50 [3] [nM] | MIC [4] [µg/mL] | MIC [5] [µg/mL] | MIC [6] [µg/mL] | MIC, combination of CAZ and compounds of the invention at 4 μg/mL [7] [µg/mL] | MIC, combination of CAZ and compounds of the invention at 4 μg/mL [8] [µg/mL] | MIC, combination of CAZ and compounds of the invention at 4 μg/mL [9] [µg/mL] | MIC, combination of CAZ and compounds of the invention at 4 μg/mL [10] [µg/mL] | MIC, combination of CAZ and compounds of the invention at 4 μg/mL [11] [µg/mL] | MIC, combination of CAZ and compounds of the invention at 4 μg/mL [12] [µg/mL] | MIC, combination of CAZ and compounds of the invention at 4 μg/mL [13] [µg/mL] | MIC, combination of CAZ and compounds of the invention at 4 μg/mL [14] [µg/mL] | MIC, combination of CAZ and compounds of the invention at 4 μg/mL [15] [µg/mL] | MIC, combination of CAZ and compounds of the invention at 4 μg/mL [16] [µg/mL] | MIC, combination of CAZ and compounds of the invention at 4 μg/mL [17] [µg/mL] | MIC, combination of CAZ and compounds of the invention at 4 μg/mL [18] [µg/mL] | MIC, combination of CAZ and compounds of the invention at 4 μg/mL [19] [µg/mL] | MIC, combination of CAZ and compounds of the invention at 4 μg/mL [20] [µg/mL] | other results
CNC(=O)CON=C1C[C@@H](C(N)=O)N2C[C@@H]1N(OS(=O)(=O)[O-])C2=O.[Na+] (mixture of isomers) [Example 2, sodium [(2S,5S)-2-carbamoyl-4-[2-(methylamino)-2-oxo-ethoxy]imino-7-oxo-1,6-diazabicyclo[3.2.1]octan-6-yl] sulfate] | 110 | 3.2 | 0.84 | 8 | > 32 | > 32 | 1 | 8 | 64 | ≤0.25 | ≤0.25 | 0.5 | 2 | 64 | 32 | 64 | 16 | 2 | 2 | 0.5 | MIC, combination of CAZ and compounds of the invention at 4 μg/mL [21]: ≤0.125 µg/mL
NC[C@@H]1CC(=NOCC(N)=O)[C@@H]2CN1C(=O)N2OS(=O)(=O)O (mixture of isomers) [Example 5, sodium and 2,2,2-trifluroacetate [(2S,5S)-4-(2-amino-2-oxo-ethoxy)imino-2-(azaniumylmethyl)-7-oxo-1,6-diazabicyclo[3.2.1]octan-6-yl] sulfate] | 12000 | 11000 | 8 | > 32 | > 32 | 32 | <0.25 | 0.5 | 1 | <0.25 | ≤0.25 | 1 | 0.25 | 0.5 | 2 | ≤0.25 | <0.25 | ≤0.25 | 1 | ≤0.25 | MIC, combination of CAZ and compounds of the invention at 4 μg/mL [21]: <0.25 µg/mL
NC[C@@H]1CC(=O)[C@@H]2CN1C(=O)N2OS(=O)(=O)O [Example 6, 2,2,2-trifluroacetate and sodium [(2S,5S)-2-(azaniumylmethyl)-4,7-dioxo-1,6-diazabicyclo[3.2.1]octan-6-yl] sulfate] | 38000 | 6400 | 68 | 2 | > 32 | 16 | ≤0.25 | 2 | 1 | ≤0.25 | ≤0.25 | 0.5 | 2 | 1 | 2 | 2 | 0.125 | ≤0.25 | 4 | 1 | MIC, combination of CAZ and compounds of the invention at 4 μg/mL [21]: <0.25 µg/mL
